Experimental data: ChEMBL document CHEMBL3885861, “Open TG-GATES”

Species: Rattus norvegicus
Assay: Open TG-GATES - Regimen: Daily Repeat
Format: toxicity, organism-based, Sprague-Dawley
Design: regimen Daily Repeat, gender Male, age 6 weeks
Conditions: in vivo, iv, 1 mg/kg, route intravenous injection, dose level High; for KIDNEY_L / KIDNEY_R / KIDNEY_TOTAL: tissue Kidney; for LIVER: tissue Liver
[1] = 72 h, tissue Plasma, time 3 day
[2] = […], tissue Plasma, time 14 day
[3] = […], tissue Plasma, time 28 day

Sequence: CISPLATIN
- MCV (72 h, tissue Blood, time 3 day): 61.4 fL
- Mono (72 h, tissue Blood, time 3 day): 2.2%
- Neu (72 h, tissue Blood, time 3 day): 9%
- PT (72 h, tissue Blood, time 3 day): 15.7 s
- Plat (72 h, tissue Blood, time 3 day): 137 x10_4/uL
- RBC (72 h, tissue Blood, time 3 day): 667 x10_4/ul
- Ret (72 h, tissue Blood, time 3 day): 2.5%
- WBC (72 h, tissue Blood, time 3 day): 69.2 x10_2/uL
- KIDNEY_L (72 h, time 3 day): 0.9 g
- KIDNEY_R (72 h, time 3 day): 1 g
- KIDNEY_TOTAL (72 h, time 3 day): 1.9 g
- LIVER (72 h, time 3 day): 8.7 g
- ALP [1]: 1528.2 IU/L
- AST [1]: 75.8 IU/L
- CRE [1]: 0.2 mg/dL
- Ca [1]: 11 mg/dL
- DBIL [1]: 0.002 mg/dL
- GLC [1]: 180.8 mg/dL
- IP [1]: 7.3 mg/dL
- K [1]: 4.3 meq/L
- LDH [1]: 270.4 IU/L
- PL [1]: 132.6 mg/dL
- RALB [1]: 3.1 g/dL
- TBIL [1]: 0.026 mg/dL
- TG [1]: 54.8 mg/dL
- TP [1]: 5.6 g/dL
- gamma-GTP [1]: 1.4 IU/L
- TERMINAL_BW ([…], time 7 day): 219.4 g
- TERMINAL_BW ([…], time 14 day): 226 g
- TERMINAL_BW ([…], time 28 day): 172 g
- APTT ([…], tissue Blood, time 7 day): 27.5 s
- Bas ([…], tissue Blood, time 7 day): 0%
- Eos ([…], tissue Blood, time 7 day): 0.8%
- Fbg ([…], tissue Blood, time 7 day): 299.8 mg/dL
- Hb ([…], tissue Blood, time 7 day): 14.3 g/dL
- Ht ([…], tissue Blood, time 7 day): 42.4%
- Lym ([…], tissue Blood, time 7 day): 82.8%
- MCHC ([…], tissue Blood, time 7 day): 33.6%
- MCV ([…], tissue Blood, time 7 day): 59.8 fL
- Mono ([…], tissue Blood, time 7 day): 3.6%
- Neu ([…], tissue Blood, time 7 day): 11.4%
- PT ([…], tissue Blood, time 7 day): 16 s
- Plat ([…], tissue Blood, time 7 day): 136.4 x10_4/uL
- RBC ([…], tissue Blood, time 7 day): 708.8 x10_4/ul
- Ret ([…], tissue Blood, time 7 day): 1%
- WBC ([…], tissue Blood, time 7 day): 54.2 x10_2/uL
- APTT ([…], tissue Blood, time 14 day): 26.8 s
- Bas ([…], tissue Blood, time 14 day): 0%
- Eos ([…], tissue Blood, time 14 day): 0.4%
- Fbg ([…], tissue Blood, time 14 day): 276.4 mg/dL
- Hb ([…], tissue Blood, time 14 day): 14.9 g/dL
- Ht ([…], tissue Blood, time 14 day): 43.4%
- Lym ([…], tissue Blood, time 14 day): 80.8%
- MCHC ([…], tissue Blood, time 14 day): 34.3%
- MCV ([…], tissue Blood, time 14 day): 58.8 fL
- Mono ([…], tissue Blood, time 14 day): 4%
- Neu ([…], tissue Blood, time 14 day): 13.4%
- PT ([…], tissue Blood, time 14 day): 15.3 s
- Plat ([…], tissue Blood, time 14 day): 68.4 x10_4/uL
- RBC ([…], tissue Blood, time 14 day): 739 x10_4/ul
- Ret ([…], tissue Blood, time 14 day): 0.4%
- WBC ([…], tissue Blood, time 14 day): 50.8 x10_2/uL
- APTT ([…], tissue Blood, time 28 day): 17.9 s
- Bas ([…], tissue Blood, time 28 day): 0%
- Eos ([…], tissue Blood, time 28 day): 0%
- Fbg ([…], tissue Blood, time 28 day): 270 mg/dL
- Hb ([…], tissue Blood, time 28 day): 12.1 g/dL
- Ht ([…], tissue Blood, time 28 day): 33%
- Lym ([…], tissue Blood, time 28 day): 77%
- MCH ([…], tissue Blood, time 28 day): 18.5 pg
- MCHC ([…], tissue Blood, time 28 day): 36.7%
- MCV ([…], tissue Blood, time 28 day): 50.5 fL
- Mono ([…], tissue Blood, time 28 day): 3%
- Neu ([…], tissue Blood, time 28 day): 20%
- PT ([…], tissue Blood, time 28 day): 16.9 s
- Plat ([…], tissue Blood, time 28 day): 3.1 x10_4/uL
- RBC ([…], tissue Blood, time 28 day): 653 x10_4/ul
- Ret ([…], tissue Blood, time 28 day): 0.1%
- WBC ([…], tissue Blood, time 28 day): 32.4 x10_2/uL
- KIDNEY_L ([…], time 7 day): 1 g
- KIDNEY_R ([…], time 7 day): 1 g
- KIDNEY_TOTAL ([…], time 7 day): 2 g
- KIDNEY_L ([…], time 14 day): 1.3 g
- KIDNEY_R ([…], time 14 day): 1.3 g
- KIDNEY_TOTAL ([…], time 14 day): 2.6 g
- KIDNEY_L ([…], time 28 day): 2.8 g
- KIDNEY_R ([…], time 28 day): 2.8 g
- KIDNEY_TOTAL ([…], time 28 day): 5.6 g
- LIVER ([…], time 7 day): 10 g
- LIVER ([…], time 14 day): 8.8 g
- LIVER ([…], time 28 day): 6.8 g
- ALP ([…], tissue Plasma, time 7 day): 1309.4 IU/L
- ALT ([…], tissue Plasma, time 7 day): 31.2 IU/L
- AST ([…], tissue Plasma, time 7 day): 79 IU/L
- BUN ([…], tissue Plasma, time 7 day): 18.4 mg/dL
- CRE ([…], tissue Plasma, time 7 day): 0.2 mg/dL
- DBIL ([…], tissue Plasma, time 7 day): 0.002 mg/dL
- GLC ([…], tissue Plasma, time 7 day): 170.8 mg/dL
- IP ([…], tissue Plasma, time 7 day): 5.9 mg/dL
- K ([…], tissue Plasma, time 7 day): 4.1 meq/L
- LDH ([…], tissue Plasma, time 7 day): 247.4 IU/L
- PL ([…], tissue Plasma, time 7 day): 118.8 mg/dL
- RALB ([…], tissue Plasma, time 7 day): 3.2 g/dL
- TBIL ([…], tissue Plasma, time 7 day): 0.02 mg/dL
- TC ([…], tissue Plasma, time 7 day): 63.4 mg/dL
- TG ([…], tissue Plasma, time 7 day): 64.2 mg/dL
- TP ([…], tissue Plasma, time 7 day): 5.8 g/dL
- gamma-GTP ([…], tissue Plasma, time 7 day): 1.6 IU/L
- ALP [2]: 720.4 IU/L
- ALT [2]: 37.6 IU/L
- AST [2]: 102.8 IU/L
- BUN [2]: 42.2 mg/dL
- CRE [2]: 0.5 mg/dL
- DBIL [2]: 0.002 mg/dL
- GLC [2]: 165.8 mg/dL
- IP [2]: 5.5 mg/dL
- K [2]: 4.2 meq/L
- LDH [2]: 248.4 IU/L
- PL [2]: 134.8 mg/dL
- RALB [2]: 3.1 g/dL
- TBIL [2]: 0.006 mg/dL
- TC [2]: 86 mg/dL
- TG [2]: 43 mg/dL
- TP [2]: 5.8 g/dL
- gamma-GTP [2]: 3.8 IU/L
- ALP [3]: 311 IU/L
- ALT [3]: 47 IU/L
- AST [3]: 125 IU/L
- BUN [3]: 332 mg/dL
- CRE [3]: 3.6 mg/dL
- Ca [3]: 9.1 mg/dL
- Cl [3]: 93 meq/L
- DBIL [3]: 0.01 mg/dL
- GLC [3]: 210 mg/dL
- IP [3]: 11.7 mg/dL
- K [3]: 5.4 meq/L
- LDH [3]: 2660 IU/L
- Na [3]: 129 meq/L
- PL [3]: 140 mg/dL
- RALB [3]: 2.3 g/dL
- TBIL [3]: 0 mg/dL
- TC [3]: 77 mg/dL
- TG [3]: 91 mg/dL
- TP [3]: 4.5 g/dL
- gamma-GTP [3]: 2 IU/L
